Measured values reported in patent US20260199289A1, “USE OF GLYCOGEN METABOLISM INHIBITORS FOR THE TREATMENT OF CANCER” (THE UNIVERSITY OF VERMONT AND STATE AGRICULTURAL COLLEGE, priority 2022, published 2026).
“Also recorded” adds a separate entry of the source. Read-outs that look alike come from different tables or passages of the source.

Key:
[1] = system: 8505C cells; test: Quantification of G1P, G6P, lactate, ATP, glucose, NADPH and glutathione; format: cell-based, human; details: 50 μM CP-91,149, 24 hours
Protocol: (§1) Quantification of Levels of Glycogen, Glucose-1-Phosphate, Glucose-6-Phosphate, Lactate, ATP, Glucose, NADPH, and Glutathione—Briefly, cells were seeded in 10 cm dishes (for measuring glycogen and NADPH), 6 well plates (GIP, G6P, lactate, glucose, and glutathione), or 96 well plates (ATP) and allowed to adhere overnight. CTM was aspirated and cells were rinsed with PBS before application of compounds dissolved in CTM for 24 hours, at which point cells were ~90% confluent. CTM was then aspirated, cells were rinsed with PBS, and lysed according to the respective manufacturer protocol (see Table 4) for metabolite analysis.

[2] = mouse, in vivo
Protocol: Four-week-old athymic female nude mice (outbred homozygous nude Foxn1^nu/Foxn1^nu) were purchased from Jackson Laboratory (Bar Harbor, ME, USA) and were allowed to acclimatize for one week. Mice were given food and water ad libitum. Mice were anesthetized using 3% isoflurane delivered at 1.5 L/min, and tumors were established by subcutaneously injecting 1×10^6 8505C cells with a 26G needle in 100 μL of high concentration Matrigel (Corning Inc.) diluted 1:2 with base RPMI-1640 into each flank of 24 mice. One week later, mice were sorted into four treatment groups to achieve approximately equal body weights between mice. […] Pharmacological agents were dissolved in 100% DMSO and diluted daily in 30% DMSO, 40% PEG300, and 30% PBS and incubated at 55° C. for 10 minutes prior to vortexing to encourage complete solubilization. Tumor dimensions were measured with digital calipers, and the volumes were calculated by the following formula: (Π×a×b^2)/6, where a represents the largest diameter and b is the perpendicular diameter. The body weight of each animal was taken twice a week to measure toxicity. Mice were euthanized with carbon dioxide, and the tumors were harvested, fixed with formalin (Thermo Fisher Scientific), and stored at 4° C. prior to slide sectioning and immunofluorescence analysis.

[3] = system: 8505C cells; test: Immunoblot of apoptosis markers and Ki-67 in ATC cells; format: cell-based, human; details: for apoptosis (PARP, caspase 9 and caspase 7 cleavage): six hours
Protocol: Briefly, proteins were isolated from whole cells in lysis buffer (20 mM Tris-HCl (pH 8), 137 mM NaCl, 10% glycerol, 1% Triton X-100, and 2 mM EDTA), quantified via Pierce™ BCA Protein Assay Kit (Thermo Fisher Scientific), and 25 μg protein/sample were resolved by polyacrylamide gel electrophoresis and immobilized onto nitrocellulose membranes. Membranes were blocked with 5% w/v BSA in TBS and 0.1% v/v Tween20 (Gold Bio, St Louis, MO, USA) for one hour at room temperature and incubated with primary antibodies overnight. Membranes were washed with TBS-0.1% Tween20 and secondary antibodies were applied for 1 hour at room temperature in 5% w/v BSA in TBS and 0.1% v/v Tween20. Immunoreactive proteins were detected by enhanced chemiluminescence (Thermo Scientific) on a ChemiDoc XRS+ (Bio-Rad Laboratories). Densitometry analysis was performed using ImageJ.

[4] = system: PYG isoforms; details: cited from earlier work
[5] = system: 8505C cells; test: Cell attachment to fibronectin-coated plates; format: cell-based, human; details: 24 hours of 50 μM CP treatment
Source text: Cells were washed with PBS and lifted with trypsin.

[6] = system: 8505C cells; test: Reactive oxygen species quantification (H2DCFDA); format: cell-based, human; details: for reactive oxygen species (ROS) levels: 8505C ATC cells
Protocol: Quantification of Reactive Oxygen Species—Thyroid cells (1.0-2.0×10^4) were seeded in a black 96 well plate in 200 μl CTM and allowed to adhere overnight. Wells were washed with PBS and incubated with or without 25 μM H2DCFDA for 45 minutes at 37° C. in a non-CO2 incubator with compounds of interest diluted in phenol-red free RPMI (supplemented with 2 mM glutamine and 10% charcoal-stripped serum). Wells were washed with PBS and received compounds of interest diluted in phenol-red free, supplemented RPMI and incubated at 37° C. in a SpectraMax M4 Microplate Reader (Molecular Devices) to record fluorescent measurements (Ex/Em=485/535 nm) every 15 minutes overnight. Maximum fluorescence intensity was determined (~6 hours), background signal (—H2DCFDA) was subtracted from each group, and corrected values were normalized to the vehicle control.

[7] = system: 8505C thyrospheres; test: ATC stem cell thyrosphere growth; format: cell-based, human; details: 8505C stem cells, day 3 compared to day 1
Source text: Bolf et al., “Thyroid Hormone Receptor Beta Induces a Tumor Suppressive Program in Anaplastic Thyroid Cancer,” Molecular Cancer Research 18(10):1443-1452 (2020), which is hereby incorporated by reference in its entirety. Thyrospheres per well were counted and imaged using a digital camera (Diagnostics Instruments) connected to a Nikon Eclipse TS100 inverted microscope.

[8] = system: 8505C cells; test: Glycogen content (colorimetric assay, TEM) in ATC cells; format: cell-based, human; details: ATC cells (8505C), CP-91,149 50 μM, 24-hour incubation, colorimetry and TEM
Protocol: Transmission Electron Microscopy of Glycogen Deposits—Cells were seeded in 10 cm dishes and allowed to adhere overnight. […] Cells were then rinsed with PBS and lifted with trypsin for preparation for TEM as described previously. Thwe et al., “Cell-intrinsic Glycogen Metabolism Supports Early Glycolytic Reprogramming Required for Dendritic Cell Immune Responses,” Cell Metabolism 26:558-567.e555 (2017), which is hereby incorporated by reference in its entirety.
PYGB RNA Interference—For validating successful PYGB knockdown, 4.0×10^4 cells were plated in 12 well plates containing 0.2% Lipofectamine™ 3000 Transfection Reagent and the indicated concentration of siRNA targeting PYGB or control siRNA in 1 ml CTM. RNA was extracted 72 hours later for RT-qPCR analysis and protein was extracted 96 hours later for immunoblotting. For measuring the effect of PYGB knockdown on cell viability, 1.0×10^3 cells were seeded in 96 well plates with 0.15% Lipofectamine™ 3000 Transfection Reagent and the indicated concentration of siRNA targeting PYGB or control siRNA in 200 μl CTM for 7 days before conducting the SRB assay. For measuring the effect of PYGB knockdown on glycogen content, 6.5×10^5 cells were seeded in 10 cm dishes with 0.2% Lipofectamine™ 3000 Transfection Reagent and the indicated concentration of siRNA targeting PYGB or control siRNA in 10 ml CTM for 4 days preceding cell lysis for glycogen determination.
as §1

[9] = system: 8505C cells; test: RT-qPCR of glucose transporter expression; format: cell-based, human; details: 50 μM CP-91,149, 24 hours
Source text: RNA Extraction and Quantitative Real-Time PCR (qRT-PCR)—Total RNA was extracted using RNeasy Plus Kit (Qiagen) according to manufacturer's protocol. cDNA was synthesized using LunaScript® RT SuperMix Kit (New England Biolabs). Gene expression to validate RNA-seq analysis was quantified by qRT-PCR using Luna® Universal qPCR Master Mix (New England Biolabs) on a QuantStudio 3 real-time PCR system (Thermo Fisher Scientific). Fold change in gene expression compared to endogenous controls was calculated using the ddCT method.

## CN(C)C(=O)[C@H](O)[C@H](Cc1ccccc1)NC(=O)c1cc2cc(Cl)ccc2[nH]1 [CP-91,149, 5-chloro-N-[(2S,3R)-4-(dimethylamino)-3-hydroxy-4-oxo-1-phenylbutan-2-yl]-1H-indole-2-carboxamide]
[1]; 8505C cells
  NADPH level: decreased NADPH levels; also recorded: decreases the available supply of NADPH
  extracellular glucose / glucose uptake from the cell culture media: causes an increase in glucose uptake from the cell culture media
  glucose-1-phosphate (G1P) level: causes a buildup in glucose-1-phosphate
  glucose-6-phosphate (G6P) level: a reduction in glucose-6-phosphate
  lactate production: enhances
  reduced glutathione (GSH): decreases the relative amount of reduced glutathione (GSH)
[1]; 8505C cells, listed as CP
  NADPH level: drastic decrease in NADPH
  extracellular glucose / glucose uptake from the cell culture media: significant reduction in extracellular glucose
  glucose-1-phosphate (G1P) level: a buildup of the glycogen monomer, glucose-1-phosphate (G1P)
  glucose-6-phosphate (G6P) level: a decrease in the glycolytic intermediate, glucose-6-phosphate (G6P)
  reduced glutathione (GSH): concomitant loss in reduced glutathione (GSH)
[1]; ATC cells
  ATP levels: decreases the levels of ATP
[2]
  toxicity (body weight): low toxicity
[3]
  proliferation marker Ki-67 expression: inhibits proliferation
  apoptosis (PARP, caspase 9 and caspase 7 cleavage): induced apoptosis in ATC cells
[3]; listed as CP
  proliferation marker Ki-67 expression: reduced expression of the proliferation marker Ki-67
  apoptosis (PARP, caspase 9 and caspase 7 cleavage): significant PARP, caspase 9, and caspase 7 cleavage
[3]; listed as CP-911,49
  apoptosis (PARP, caspase 9 and caspase 7 cleavage): induces apoptosis
[4]
  inhibition of PYG isoforms: inhibits all PYG isoforms
[5]
  cell attachment to fibronectin-coated plates: inhibits cell attachment
[5]; listed as CP
  cell attachment to fibronectin-coated plates: inhibited the ability of 8505C cells to attach to fibronectin-coated plates
[6]
  reactive oxygen species (ROS) levels: induced reactive oxygen species accumulation; also recorded: enhances the relative levels of reactive oxygen species
[6]; listed as CP
  reactive oxygen species (ROS) levels: three-fold increase; also recorded: higher in cells treated with CP compared to 2-DG
[6]; 8505C cells
  ROS levels with excess glucose: excess glucose reduced ROS levels only in CP-treated cells
[7]
  thyrosphere growth / stem cell response: inhibits 8505C thyrosphere growth
[7]; listed as CP
  thyrosphere growth / stem cell response: concentration-dependent response
[8]
  glycogen content: increased glycogen content; also recorded: causes a buildup of glycogen
[8]; listed as CP
  glycogen content: significantly increased glycogen content
[9]; 149
  SLC2A1 (GLUT1) expression: increases the expression
  SLC2A3 (GLUT3) expression: increases the expression
  SLC2A4 (GLUT4) expression: increases the expression
[9]; listed as CP
  SLC2A1 (GLUT1) expression: increase
  SLC2A3 (GLUT3) expression: increase
  SLC2A4 (GLUT4) expression: did not change
